Measured values as given in patent US7192939B2, “Pestalotiopsis microsporia isolates and compounds derived therefrom” (Montana State University, priority 2002, dated 2007).
In brackets after ≈: the same amount, converted by molar mass.

Columns and labels:
[1] = Total oxyradical scavenging capacity (TOSC) assay; type: biochemical; details: for IC50: TOSC assay, ABAP initiator, KMBA, 37° C., ethylene by GC, read-out: solution concentration required to reduce the effects of the free radical initiator by 50%
Description: The similarity of pestacin to isopestacin, described herein and in Strobel, G. A.; Ford, E.; Worapong, J.; Harper, J. K.; Arif, A. M.; Grant, D. M.; Fung, P.; Chau, R. M. W. Phytochem. […] Pestacin was thus analyzed using the total oxyradical scavenging capacity (TOSC) assay. This analysis assesses a compounds ability to inhibit a free radical initiator's oxidation of α-Keto-γ-methiolbutyric acid to release ethylene gas. Compounds with antioxidant properties thus decrease the production of ethylene gas, as measured gas chromatographically. Pestacin required a 1.7±0.1 mM solution to reduce the effects of the free radical initiator by 50%. In contrast, the water-soluble vitamin E derivative, troxol, required an 18.8±0.9 mM solution to exert the same effect. Pestacin, therefor, appears to be an extremely effective antioxidant as measured by this assay. A mechanism for antioxidant activity may also be proposed based on the structure of pestacin.
Antioxidant activity of (1) was assessed by dissolving 8.7 mg of (1) in 200 μL of DMSO then diluting the solution 1:10, 1:100, and 1:1000 in DMSO. A 10 μL volume of each sample was then combined in a 10 mL vial with 100 μL of 100 mM potassium phosphate buffer, 100 μL of 2 mM α-keto-γ-methiolbuthric acid (KMBA), and 690 μL of H2O. Control samples were also prepared containing 100 μL of 100 mM potassium phosphate buffer, 100 μL of 2 mM KMBA, and 700 μL of H2O. The sealed samples were then incubated at 37° C. for 5 minutes followed by injection of 100 μL of the free radical initiator, 2,2′-azobis(2-methylpropionamidine) (ABAP). Peroxy radicals, generated by thermal homolysis of ABAP at 37° C., then oxidized KMBA to produce ethylene gas. Ethylene production was monitored by gas chromatography of 1 mL samples removed every 12 minutes over a 96-minute period. Chromatographic analysis was performed on a Hewlett-Packard 5890A gas chromatograph equipped with a Supelco 6-foot Porpak Q packed column, a flame ionization detector, and employing helium as a carrier gas (30 mL/min). […]

[2] = tested on: Pythium ultimum; assay: Antimycotic activity, minimum inhibitory concentration in potato dextrose broth; type: cell-based
Procedure: (§1) The minimum inhibitory concentration of (1) required to give a 100% reduction of growth of a test fungus over a course of two days was determined by dissolving (1) in 1 ml of potato dextrose broth (PDB). An agar plug, 1 cm in dia, containing the test fungus was then added to the broth and the organisms incubated at 23° C. for 48 hr. At that time the plate containing the fungi was examined visually for growth and the concentration of compound reducing growth by 100% was recorded. Fungi tested were each plant pathogenic and included an oomycete—Pythium ultimum, an ascomycete—Sclerotinia sclerotiorum, and a basidiomycete—Rhizoctonia solani.
Isopestacin (1) is antimycotic, with total inhibition of Pythium ultimum, a plant pathogenic oomycete, at 40 μg/ml at 48 hr.
Pestacin was also analyzed for antifungal activity using previously described methodology. […] This level of activity is slightly greater than that previously observed for isopestacin.

[3] = ESR superoxide scavenging (hypoxanthine/xanthine oxidase, EMPO spin trap); type: biochemical; details: superoxide generated by hypoxanthine/xanthine oxidase, read-out: concentration needed to reduce the free radical O2−• (ESR signal) by 50%
Procedure: All EPR spectra were recorded on a Bruker model ESP 300E spectrometer, X-band operating at a microwave frequency 9.787 gHz, a microwave power of 10 mW, a modulation frequency of 100.0 kHz, and a modulation amplitude of 0.367 mT. The magnetic field range was 334±80 mT, a time constant of 40.96 ms, a receiver gain of 2×10^4 and a magnetic fieldsweep rate of 0.48 mT/s. […] The superoxide O2 ^−• was generated by the action of hypoxanthine or xanthine on water and oxygen through the catalysis of xanthine oxidase. […] All enzymes and their respective substrates were purchased from Sigma Chemical Co., while other reagents were acquired from Calbiochem, and Life-Tech. The reaction mixture was transferred to an EPR flat tube for signal detection. Also placed in the tube was a spin trap compound-2-ethoxycarbonyl-2-methyl-3,4-dihydro-2H-pyrrole-1-oxide (EMPO) to trap the superoxide. […] Test compounds were added to the tube and their effects on signal reduction (antioxidant activity) were monitored. Because of the water insolubility of (1) it was necessary to dissolve it first into a small amount of methanol and then add it to the reaction mixture. […]
The superoxide was generated in our experimental set-up by the action of hypoxanthine on water and oxygen via the catalysis of xanthine oxidase. […] Simultaneously, EPR spectra are recorded of the free electrons associated with the free radicals. […]

[4] = ESR hydroxyl free radical scavenging (Fenton reaction, DEPMPO spin trap); type: biochemical; details: 0.18 mM OH• chemically generated (Fenton), read-out: concentration required to reduce hydroxyl free radical by 50%
Procedure: EPR techniques used in this work are primarily those reported by Sheu et al., 2000 and Zhu and Fung, 2000. All EPR spectra were recorded on a Bruker model ESP 300E spectrometer, X-band operating at a microwave frequency 9.787 gHz, a microwave power of 10 mW, a modulation frequency of 100.0 kHz, and a modulation amplitude of 0.367 mT. The magnetic field range was 334±80 mT, a time constant of 40.96 ms, a receiver gain of 2×10^4 and a magnetic fieldsweep rate of 0.48 mT/s. The magnetic field spacings are similar to those reported by Zhang et al (2000). The superoxide O2 ^−• was generated by the action of hypoxanthine or xanthine on water and oxygen through the catalysis of xanthine oxidase. The hydroxyl free radical OH^• is generated by the well-known Fenton reaction: Fe^2++H2O2=Fe^3++OH^−+OH^•, where 0.09 mM ferrous sulfate and 0.18 mM H2O2 were used. All enzymes and their respective substrates were purchased from Sigma Chemical Co., while other reagents were acquired from Calbiochem, and Life-Tech. […] Test compounds were added to the tube and their effects on signal reduction (antioxidant activity) were monitored. […]
Testing confirms that Isopestacin (1) indeed has antioxidant activity as determined by ESR measurements described in the experimental section. […] Simultaneously, EPR spectra are recorded of the free electrons associated with the free radicals. […]

[5] = Lipid free radical reduction; type: biochemical
Description: Testing confirms that Isopestacin (1) indeed has antioxidant activity as determined by ESR measurements described in the experimental section. The compound is able to scavenge superoxide O2^−• and OH^• radicals in solution. The superoxide was generated in our experimental set-up by the action of hypoxanthine on water and oxygen via the catalysis of xanthine oxidase. On the other hand OH^• was generated via the Fenton reaction of hydrogen peroxide on ferrous iron. Simultaneously, EPR spectra are recorded of the free electrons associated with the free radicals. […] It should be noted that since superoxide was generated via the xanthine oxidase reaction it was no possible to accurately calculate the exact molar concentration of O2^−• in these reactions. However, (1) is extremely capable of scavenging the hydroxyl free radical (OH^•) with 0.22 mM required to reduce this free radical (0.18 mM OH^•—chemically generated) by 50%. This is an important biological and chemical property of (1) since OH^• is believed to be more detrimental to cell death directly than O2^−•. On the other hand, (1) has no effect in reducing the lipid free radical LOO^−•.

[6] = tested on: Rhizoctonia solani; assay: Antimycotic activity, minimum inhibitory concentration in potato dextrose broth; type: cell-based
Procedure: as §1

[7] = tested on: Sclerotinia sclerotiorum; assay: as above; type: cell-based
Procedure: as §1

[8] = Solubility in water; type: physicochemical

SMILES	IC50 [1]	MIC ([2]; Globisporangium ultimum, previously described methodology, read-out: minimum inhibitory concentration against Pythium ultimum)	antioxidant activity relative to troxol ([1]; pestacin vs vitamin E derivative troxol)	IC50 [3]	IC50 [4]	effect in reducing the lipid free radical LOO−• [5]	concentration giving total inhibition of Pythium ultimum ([2]; at 48 hr, 100% reduction of growth)	inhibitory effect on Rhizoctonia solani [6]	inhibitory effect on Sclerotinia sclerotiorum [7]	solubility in water [8]
Cc1c(C)c2c(c(C)c1O)CCC(C)(C(=O)O)O2 (centres unmarked) [troxol, reference compound]	18.8 ± 0.9 mM									
Cc1cc(O)c2c(c1)COC2c1c(O)cccc1O (racemic) [Pestacin]	1.7 ± 0.1 mM	~10 µg/mL (≈ 38.7 µM)	11 times							
Cc1cc(O)c2c(c1)C(c1c(O)cccc1O)OC2=O (racemic) [Isopestacin, 1-oxo-3-(9,13-dihydroxybenzene)-5-methyl-7-hydroxy-1,3-dihydrobenzofuranone]				≥ 0.185 mM	0.22 mM	no effect	40 µg/mL	no inhibitory effect	no inhibitory effect	very low solubility in water
